Reference: US20220289731A1, “MELANOCORTIN-4 RECEPTOR AGONISTS” (LG CHEM, LTD., priority 2019, published 2022)

Key:
CYP3A4 = CYP3A4 (Homo sapiens, UniProt P08684); assay: CYP inhibition, recombinant enzyme, fluorescence; format: in vitro ADME; settings: recombinant CYP3A4, pH 7.4, 10 μM compound, 30 min pre-incubation, read-out: CYP inhibition (%) at 10 μM, 3A4
Experimental: (§1) The following Table 8 was referred for the use of a probe substrate, positive control, and isozyme and measurement conditions with respect to the measurement of the inhibitory ability of each substance. [table] […] The buffer spiked with experimental compound was mixed with the same volume of CYP isozyme prep solution so that the final concentration was 10 μM, followed by pre-warming for 10 minutes in a 37° C. fluorescence plate-reader. Each well NRS solution (NADPH Regeneration System: 0.22 mM β-NADP, 2.8 mM glucose-6-phosphate, and 0.6 units/mL of glucose-6-phosphate dehydrogenase) was added, followed by pre-incubation for 30 minutes. Thereafter, the reaction was initiated by adding the substrate to the well subjected to pre-incubation and monitored at intervals of one minute at the measurement wavelength for each substrate for 30 minutes. The measured values obtained from the positive control and the compound of Example 1 were compared with the fluorescence intensity of a negative control (no inhibition or compound) to confirm the inhibitory ability of each compound against isozyme. Inhibitory activity (%) was expressed based on the following criteria: […]

CYP2C19 = CYP2C19 (Homo sapiens, UniProt P33261); assay: CYP inhibition, recombinant enzyme, fluorescence; format: in vitro ADME; settings: recombinant CYP2C19, pH 7.4, 10 μM compound, 30 min pre-incubation, read-out: CYP inhibition (%) at 10 μM, 2C19
Experimental: as §1

[1] = system: mouse obesity model induced by high fat diet; assay: Mouse obesity model induced by high fat diet; format: in vivo, C57BL/6Ntaconic mice; settings: oral once a day, high-fat-diet obese mice
Experimental: The effect of melanocortin-4 receptor agonists on obesity was evaluated by using the mouse obesity model induced with a high fat diet.
Five-week-old male C57BL/6Ntaconic mice were fed with a 60 kcal % fat diet (D12492, Research Diet.) for 15 weeks to induce obesity. The compound of Example 1, the compounds of the comparative examples (A95 and A96), and sibutramine as a positive control were prepared in distilled water and orally administered to […] mouse obesity models induced by a high-fat diet once a day from day 1 to day 16. From Day 1 to Day 16, the body weight was measured once a day, the dietary intake was measured five times a week, and drinking water intake was measured twice a week. Blood glucose and glycated hemoglobin were measured on Day 15, and all animals were sacrificed on Day 17. Blood was collected through the abdominal vena cava, and the liver and epididymal adipose tissues were removed and weighed. The collected blood was placed in a heparin tube and centrifuged to separate plasma, and then plasma biochemical analysis was performed.

Chain of CYP2C19 (P33261 whole entry): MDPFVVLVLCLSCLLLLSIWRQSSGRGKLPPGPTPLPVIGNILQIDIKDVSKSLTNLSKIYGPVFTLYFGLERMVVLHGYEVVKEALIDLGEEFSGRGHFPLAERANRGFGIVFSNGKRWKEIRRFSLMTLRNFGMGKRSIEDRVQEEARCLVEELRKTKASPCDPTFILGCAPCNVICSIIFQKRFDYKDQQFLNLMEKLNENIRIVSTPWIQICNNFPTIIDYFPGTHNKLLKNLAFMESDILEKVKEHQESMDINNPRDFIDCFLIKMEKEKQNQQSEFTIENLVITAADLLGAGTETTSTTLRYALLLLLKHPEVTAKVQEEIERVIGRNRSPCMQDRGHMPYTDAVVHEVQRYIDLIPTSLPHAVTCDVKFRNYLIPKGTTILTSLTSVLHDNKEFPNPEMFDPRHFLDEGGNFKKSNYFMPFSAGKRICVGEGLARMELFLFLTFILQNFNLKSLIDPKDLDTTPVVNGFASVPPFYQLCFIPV
Chain of CYP3A4 (P08684 whole entry): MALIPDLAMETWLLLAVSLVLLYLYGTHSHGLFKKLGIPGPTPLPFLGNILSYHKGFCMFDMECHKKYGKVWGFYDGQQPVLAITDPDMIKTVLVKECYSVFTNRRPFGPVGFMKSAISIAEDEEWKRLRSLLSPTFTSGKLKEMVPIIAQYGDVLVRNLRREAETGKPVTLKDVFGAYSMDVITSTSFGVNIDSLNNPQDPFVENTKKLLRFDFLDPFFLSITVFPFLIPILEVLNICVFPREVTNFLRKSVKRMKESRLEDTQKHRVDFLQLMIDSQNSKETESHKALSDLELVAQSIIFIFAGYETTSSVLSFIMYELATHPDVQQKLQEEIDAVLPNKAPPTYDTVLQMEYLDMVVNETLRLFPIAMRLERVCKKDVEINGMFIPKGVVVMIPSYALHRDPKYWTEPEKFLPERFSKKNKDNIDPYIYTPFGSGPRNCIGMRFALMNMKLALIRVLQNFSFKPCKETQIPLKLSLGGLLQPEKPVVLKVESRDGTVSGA

SMILES | inhibition at 30 min, 10 µM (CYP3A4) [%] | inhibition at 30 min, 10 µM (CYP2C19) [%] | Difference in weight change rate to vehicle ([1]; Day 12, 10 mg/kg) [%] | Difference in weight change rate to vehicle ([1]; Day 12, 30 mg/kg) [%]
CC(=O)N(C1CCC(C)(C)CC1)[C@H]1C[C@@H](C(=O)N2CCOCC2)N(C(=O)[C@@H]2CN(C(C)(C)C)C[C@H]2c2ccc(Cl)cc2)C1.Cl [Comparative Example 2 (A96), N-((3S,5S)-1-((3S,4R)-1-(tert-butyl)-4-(4-chlorophenyl)pyrrolidine-3-carbonyl)-5-(morpholine-4-carbonyl)pyrrolidin-3-yl)-N-(4,4-dimethylcyclohexyl)acetamide hydrochloride] | < 50 | < 50 | −0.2 | −7.1
CC(C)C(=O)N([C@H]1C[C@@H](C(=O)N2CCOCC2)N(C(=O)[C@@H]2CN(C(C)(C)C)C[C@H]2c2ccc(Cl)cc2)C1)[C@H]1CC[C@@H](C)CC1.Cl [Example 1, N-((3S,5S)-1-((3S,4R)-1-(tert-butyl)-4-(4-chlorophenyl)pyrrolidine-3-carbonyl)-5-(morpholine-4-carbonyl)pyrrolidin-3-yl)-N-((1s,4R)-4-methylcyclohexyl)isobutyramide hydrochloride] | < 50 | < 50 |  | 
CC(=O)N(C1CCC(C)(C)CC1)[C@H]1C[C@@H](C(=O)N2CCOCC2)N(C(=O)[C@@H]2CN(C(C)(C)C)C[C@H]2c2ccc(F)cc2F)C1.Cl [Comparative Example 1 (A95), N-((3S,5S)-1-((3S,4R)-1-(tert-butyl)-4-(2,4-difluorophenyl)pyrrolidine-3-carbonyl)-5-(morpholine-4-carbonyl)pyrrolidin-3-yl)-N-(4,4-dimethylcyclohexyl)acetamide hydrochloride] |  |  | −4.8 | −4.0
